Among the data in PubChem BioAssay AID1259407 (Chemical Carcinogenesis Research Information System (CCRIS), 2018) are mutagenic call values, retold here.

Activity calls are given as the source filed them. The rule behind the calls is not given here.

For the data set, the system named is CCRIS mutagenicity, Ames/micronucleus/aberration tests. As to the kind of experiment: CCRIS mutagenicity studies.
[1] abbreviates: Test System: AMES SALMONELLA TYPHIMURIUM, Strain/Indicator: TA98, Metabolic Activation: NONE, Method: STANDARD PLATE.
[2] abbreviates: Test System: AMES SALMONELLA TYPHIMURIUM, Strain/Indicator: TA100, Metabolic Activation: NONE, Method: STANDARD PLATE.
Setting [3] is: Test System: AMES SALMONELLA TYPHIMURIUM, Strain/Indicator: TA98, Metabolic Activation: NONE, Method: PREINCUBATION
The mark [4] stands for this setting: Test System: AMES SALMONELLA TYPHIMURIUM, Strain/Indicator: TA100, Metabolic Activation: NONE, Method: PREINCUBATION
Where [5] appears, read: Test System: AMES SALMONELLA TYPHIMURIUM, Strain/Indicator: TA1535, Metabolic Activation: NONE, Method: PREINCUBATION
Setting [6] is: Test System: AMES SALMONELLA TYPHIMURIUM, Strain/Indicator: TA98, Metabolic Activation: RAT, LIVER, S-9, AROCLOR 1254, Method: STANDARD PLATE.
Where [7] appears, read: Test System: AMES SALMONELLA TYPHIMURIUM, Strain/Indicator: TA100, Metabolic Activation: RAT, LIVER, S-9, AROCLOR 1254, Method: STANDARD PLATE.

As to `CNC(=O)c1c(N(C)N=O)ncn1C`, the mutagenic call by setting is: under setting [1], “inactive; negative”; (Test System: AMES SALMONELLA TYPHIMURIUM, Strain/Indicator: TA98, Metabolic Activation: S-9, Method: PREINCUBATION) “inactive; negative”; (Test System: AMES SALMONELLA TYPHIMURIUM, Strain/Indicator: TA98, Metabolic Activation: S-9, Method: STANDARD PLATE) “inactive; negative”; under setting [2], “inactive; negative”; (Test System: AMES SALMONELLA TYPHIMURIUM, Strain/Indicator: TA100, Metabolic Activation: S-9, Method: PREINCUBATION) “inactive; negative”; (Test System: AMES SALMONELLA TYPHIMURIUM, Strain/Indicator: TA100, Metabolic Activation: S-9, Method: STANDARD PLATE) “inactive; negative”. Moreover, the mutagenic call is “inactive; negative” (Test System: AMES SALMONELLA TYPHIMURIUM, Strain/Indicator: TA102, Metabolic Activation: NONE, Method: STANDARD PLATE); “inactive; negative” (Test System: AMES SALMONELLA TYPHIMURIUM, Strain/Indicator: TA102, Metabolic Activation: S-9, Method: PREINCUBATION); “inactive; negative” (Test System: AMES SALMONELLA TYPHIMURIUM, Strain/Indicator: TA102, Metabolic Activation: S-9, Method: STANDARD PLATE); “inactive; negative” (Test System: AMES SALMONELLA TYPHIMURIUM, Strain/Indicator: TA1535, Metabolic Activation: NONE, Method: STANDARD PLATE); “inactive; negative” (Test System: AMES SALMONELLA TYPHIMURIUM, Strain/Indicator: TA1535, Metabolic Activation: S-9, Method: PREINCUBATION); “inactive; negative” (Test System: AMES SALMONELLA TYPHIMURIUM, Strain/Indicator: TA1535, Metabolic Activation: S-9, Method: STANDARD PLATE). Moreover, the mutagenic call runs as follows: (Test System: AMES SALMONELLA TYPHIMURIUM, Strain/Indicator: TA1537, Metabolic Activation: NONE, Method: STANDARD PLATE) “inactive; negative”; (Test System: AMES SALMONELLA TYPHIMURIUM, Strain/Indicator: TA1537, Metabolic Activation: S-9, Method: PREINCUBATION) “inactive; negative”; (Test System: AMES SALMONELLA TYPHIMURIUM, Strain/Indicator: TA1537, Metabolic Activation: S-9, Method: STANDARD PLATE) “inactive; negative”.

For the compound `Cc1cc2c(N3CCCC3)nc(N3CCCC3)nc2n1C`, the mutagenic call (Test System: UDS RAT HEPATOCYTES, Strain/Indicator: THY-INCORP, Metabolic Activation: NONE, Method: AUTORADIOGRAPHY) is “active; positive”.

With `CNC(=O)c1ccccc1`, the mutagenic call (Test System: AMES SALMONELLA TYPHIMURIUM, Strain/Indicator: TA97, Metabolic Activation: HAMSTER, LIVER, S-9, AROCLOR 1254 (10 OR 30%), Method: PREINCUBATION) was “inactive; negative”; the mutagenic call (Test System: AMES SALMONELLA TYPHIMURIUM, Strain/Indicator: TA97, Metabolic Activation: NONE, Method: PREINCUBATION) is “inactive; negative”; the mutagenic call (Test System: AMES SALMONELLA TYPHIMURIUM, Strain/Indicator: TA97, Metabolic Activation: RAT, LIVER, S-9, AROCLOR 1254 (10 OR 30%), Method: PREINCUBATION) is “inactive; negative”; the mutagenic call (Test System: AMES SALMONELLA TYPHIMURIUM, Strain/Indicator: TA98, Metabolic Activation: HAMSTER, LIVER, S-9, AROCLOR 1254 (10 OR 30%), Method: PREINCUBATION) is “inactive; negative”; the mutagenic call under setting [3] was “inactive; negative”; the mutagenic call (Test System: AMES SALMONELLA TYPHIMURIUM, Strain/Indicator: TA98, Metabolic Activation: RAT, LIVER, S-9, AROCLOR 1254 (10 OR 30%), Method: PREINCUBATION) is “inactive; negative”. Also, the mutagenic call is “inactive; negative” (Test System: AMES SALMONELLA TYPHIMURIUM, Strain/Indicator: TA100, Metabolic Activation: HAMSTER, LIVER, S-9, AROCLOR 1254 (10 OR 30%), Method: PREINCUBATION); “inactive; negative” under setting [4]; “inactive; negative” (Test System: AMES SALMONELLA TYPHIMURIUM, Strain/Indicator: TA100, Metabolic Activation: RAT, LIVER, S-9, AROCLOR 1254 (10 OR 30%), Method: PREINCUBATION); “inactive; negative” (Test System: AMES SALMONELLA TYPHIMURIUM, Strain/Indicator: TA1535, Metabolic Activation: HAMSTER, LIVER, S-9, AROCLOR 1254 (10 OR 30%), Method: PREINCUBATION); “inactive; negative” under setting [5]; “inactive; negative” (Test System: AMES SALMONELLA TYPHIMURIUM, Strain/Indicator: TA1535, Metabolic Activation: RAT, LIVER, S-9, AROCLOR 1254 (10 OR 30%), Method: PREINCUBATION).

For the compound `[N-]=[N+]=NC[C@H]1O[C@H](O)[C@H](O)[C@@H](O)[C@@H]1O`, the mutagenic call under setting [1] was “inactive; negative” and the mutagenic call under setting [2] was “active; positive”.

As for `O=S(=O)(O)c1cc(S(=O)(=O)O)c2cc(O)ccc2c1`, the mutagenic call is, setting by setting: under setting [3], “inactive; negative”; (Test System: AMES SALMONELLA TYPHIMURIUM, Strain/Indicator: TA98, Metabolic Activation: RAT LIVER S-9, PHENOBARBITAL AND BETA-NAPHTHOFLAVONE, Method: PREINCUBATION) “inactive; negative”; (Test System: AMES SALMONELLA TYPHIMURIUM, Strain/Indicator: TA98, Metabolic Activation: RAT, LIVER, S-9, PHENOBARBITAL, Method: PREINCUBATION) “inactive; negative”; under setting [4], “inactive; negative”; (Test System: AMES SALMONELLA TYPHIMURIUM, Strain/Indicator: TA100, Metabolic Activation: RAT LIVER S-9, PHENOBARBITAL AND BETA-NAPHTHOFLAVONE, Method: PREINCUBATION) “inactive; negative”; (Test System: AMES SALMONELLA TYPHIMURIUM, Strain/Indicator: TA100, Metabolic Activation: RAT, LIVER, S-9, PHENOBARBITAL, Method: PREINCUBATION) “inactive; negative”. In addition, the mutagenic call is “inactive; negative” under setting [5]; “inactive; negative” (Test System: AMES SALMONELLA TYPHIMURIUM, Strain/Indicator: TA1535, Metabolic Activation: RAT LIVER S-9, PHENOBARBITAL AND BETA-NAPHTHOFLAVONE, Method: PREINCUBATION); “inactive; negative” (Test System: AMES SALMONELLA TYPHIMURIUM, Strain/Indicator: TA1537, Metabolic Activation: NONE, Method: PREINCUBATION); “inactive; negative” (Test System: AMES SALMONELLA TYPHIMURIUM, Strain/Indicator: TA1537, Metabolic Activation: RAT LIVER S-9, PHENOBARBITAL AND BETA-NAPHTHOFLAVONE, Method: PREINCUBATION); “inactive; negative” (Test System: AMES SALMONELLA TYPHIMURIUM, Strain/Indicator: TA1538, Metabolic Activation: NONE, Method: PREINCUBATION); “inactive; negative” (Test System: AMES SALMONELLA TYPHIMURIUM, Strain/Indicator: TA1538, Metabolic Activation: RAT LIVER S-9, PHENOBARBITAL AND BETA-NAPHTHOFLAVONE, Method: PREINCUBATION). Also, the mutagenic call reads like this: (Test System: E.COLI, Strain/Indicator: WP2UVRA, Metabolic Activation: NONE, Method: PREINCUBATION) “inactive; negative”; (Test System: E.COLI, Strain/Indicator: WP2UVRA, Metabolic Activation: RAT LIVER S-9, PHENOBARBITAL AND BETA-NAPHTHOFLAVONE, Method: PREINCUBATION) “inactive; negative”.

With `CC(=O)N(O)c1ccccc1C`, the mutagenic call runs as follows: under setting [1], “inactive; negative”; under setting [6], “active; positive”; under setting [2], “inactive; negative”; under setting [7], “inactive; negative”.

Turning to `Cc1cc(C)c2ccc3ccccc3c2c1`, the mutagenic call under setting [1] was “inactive; negative”, the mutagenic call under setting [6] was “active; positive”, the mutagenic call under setting [2] was “inactive; negative” and the mutagenic call under setting [7] was “active; positive”.
